Test [1] deals with T1, human GLP-1 receptor (Homo sapiens, UniProt P43220).
T1 construct: expressed in transfected cells; host or cells: membranes of BHK cells, parent line BHKTS13, clone FCW467-12A
Briefly: Assay (II)(a): GLP-1 receptor binding, [125I]GLP-1 displacement, SPA on BHK membranes. The following applies: displacement of [125I]GLP-1, membranes with human GLP-1 receptor; read-out: IC50 GLP-1R. How it is done:
Assay (II): GLP-1 and Glucagon Receptor Binding The purpose of this assay is to test the in vitro receptor binding activity of the GLP-1 derivatives of the invention. (a) GLP-1 Receptor Binding The GLP-1 receptor (GLP-1R) binding is a measure of the affinity of a derivative for the human GLP-1 receptor. The GLP-1 receptor binding of each derivatives were determined with competitive binding, displacing [^125I]GLP-1 bound to GLP-1 receptors expressed in cell membranes associated with wheat germ agglutinin (WGA) scintillation proximity assay (SPA) beads. Each derivative was added in a series of concentrations to isolated membranes comprising the human GLP-1 receptor and displacement of the labelled radioligand was monitored. The receptor binding was reported as the concentration at which half of the labelled ligand is displaced from the receptor, the IC^50 value. The following chemicals were used in the assay: MEM w/o phenol red (Gibco 11880-028), Pen/strep (Invitrogen 15140-122), G418 (Invitrogen 10131-027), 1 M Hepes (Gibco 15630), EDTA (Invitrogen 15575-038), PBS (Invitrogen 14190-094), fetal calf serum (Invitrogen 16140-071), EGTA, MgCl2 (Merck 1.05832.1000), Tween 20 (Amresco 0850C335), SPA particles (wheat germ agglutinin (WGA) SPA beads, Perkin Elmer RPNQ0001), [125I]-GLP-1]-(7-36)NH2 (produced in-house), OptiPlate™-96 (Perkin Elmer). Buffer 1 consisted of 20 mM Na-HEPES plus 10 mM EDTA and pH was adjusted to 7.4. Buffer 2 consisted of 20 mM Na-HEPES plus 0.1 mM EDTA and pH was adjusted to 7.4. Assay buffer consisted of 50 mM HEPES supplemented with 5 mM EGTA, 5 mM MgCl2, 0.005% Tween 20 and pH was adjusted to 7.4. A 0.02% albumin stock consisted of HSA dissolved at 0.02% (w/v) in assay buffer. The cells used in this assay (clone FCW467-12A) were BHK cells with BHKTS13 as a parent cell line. The cells express the human GLP-1 receptor. The cells were grown at 5% CO2 in DMEM, 10% fetal calf serum, 1% Pen/Strep (Penicillin/Streptomycin) and 1.0 mg/ml of the selection marker G418. To make a membrane preparation the cells were grown to approximately 80% confluence. The cells were washed twice in phosphate-buffered saline and harvested. The cells were pelleted using a brief centrifugation and the cell pellet was kept on ice. The cell pellet was homogenised with ULTRA-THURRAX dispersing instrument for 20-30 seconds in a suitable amount of buffer 1 (e.g., 10 ml). The homogenate was centrifuged for 15 minutes. The pellet was re-suspended (homogenised) in 10 ml buffer 2 and centrifuged. This step was repeated once more. The resulting pellet was re-suspended in buffer 2 and the protein concentration was determined. The membranes were aliquoted and stored at minus 80° C. • 1. For the receptor binding assay 50 μl of the assay buffer was added to each well of an assay plate. • 2. Test compounds were serially diluted to give the following concentrations: 8×10EE-7 M, 8×10EE-8 M, 8×10EE-9 M, 8×10EE-10 M, 8×10EE-11 M, 8×10EE-12 M and 8×10EE-13 M. Twenty-five μl were added to appropriate wells in the assay plate. • 3. Cell membrane aliquots were thawed and diluted to their working concentration. Fifty μl were added to each well in the assay plate. • 4. WGA SPA beads were suspended in assay buffer at 20 mg/ml. The suspension was diluted to 10 mg/ml in assay buffer just prior to addition to the assay plate. Fifty μl were added to each well in the assay plate. • 5. The incubation was started by adding 25 μl of 480 pM solution of [125I]-GLP-1]-(7-36)NH2 to each well of the assay plate. A 25 μl aliquot was reserved for measuring total counts/well. • 6. The assay plate was incubated for 2 h at 30° C. • 7. The assay plate was centrifuged for 10 min. • 8. The assay plate was read in a Perkin Elmer TopCount NXT instrument. Calculations The data from the TopCount instrument were transferred to GraphPad Prism software. The software averaged the values for the replicates and performed a non-linear regression. IC50 values were calculated by the software and reported in nM. […]
For orientation: Loss of bound radioactivity is the signal in a displacement assay; it reports binding, not function.

For test [2], the target named is T1, human GLP-1 receptor. In words: Assay (I)(a): GLP-1 receptor potency, CRE luciferase reporter gene assay in BHK cells. The test is classed as cell-based. The following applies: BHK cells expressing human GLP-1 receptor, read-out: EC50 GLP-1R. How it is done:
Assay (I): GLP-1 and Glucagon Receptor Potency The purpose of this example was to test the activity or potency, of the GLP-1 derivatives of the invention, in vitro. The in vitro potency is the measure of human GLP-1 receptor (GLP-1R) or glucagon receptor (glucagonR) activation, respectively, in a whole cell assay. In vitro potency was determined by measuring the cellular response of human GLP-1 or glucagon receptor activation, respectively, in a reporter gene assay. The assay was performed in a BHK cell line that stably expresses either the human GLP-1 receptor or the human glucagon receptor and comprises the DNA for the cAMP response element (CRE) coupled to a promoter and the gene for firefly luciferase (CRE luciferase). […] When assay incubation was completed, the luciferase substrate (luciferin) was added and the enzyme converted luciferin to oxyluciferin and produces bioluminescence. The luminescence was measured as the readout for the assay. (a) GLP-1 Receptor Activation The cells used in this assay (clone FCW467-12A/KZ10-1) were BHK cells with BHKTS13 as a parent cell line. The cells were derived from a clone (FCW467-12A) that expresses the human GLP-1 receptor and were established by further transfection with CRE luciferase to obtain the current clone. The cells were cultured at 5% CO2 in DMEM medium with 10% FBS, 1×GlutaMAX, 1 mg/ml G418, 240 nM MTX (methotrexate) and 1% pen/strep (penicillin/streptomycin). They were aliquoted and stored in liquid nitrogen. Before each assay, an aliquot was taken up and washed three times in PBS before being suspended at the desired concentration in assay medium. For 96-well plates the suspension was made to give a final concentration of 5×10EE3 cells/well. The following chemicals were used in the assay: Pluronic F-68 (10%) (Gibco 2404), Ovalbumin (Sigma A5503), DMEM w/o phenol red (Gibco 11880-028), 1 M Hepes (Gibco 15630), Glutamax 100× (Gibco 35050) and steadylite plus (PerkinElmer 6016757). Assay Medium consisted of DMEM w/o phenol red, 10 mM Hepes, 1×GlutaMAX, 2% Ovalbumin and 0.2% Pluronic F-68. Cell stocks were thawed in a 37° C. water bath. Cells were washed three times in PBS. The cells were counted and adjusted to 5×10EE3 cells/50 μl (1×10EE5 cells/ml) in Assay Medium. A 50 μl aliquot of cells was transferred to each well in the assay plate. Stocks of the test compounds and reference compounds were diluted to a concentration of […] in Assay Medium. Compounds were diluted 10-fold to give the following concentrations: 2×10EE-6 M, 2×10EE-7 M, 2×10EE-8 M; 2×10EE-9 M, 2×10EE-10 M, 2×10EE-11 M, 2×10EE-12 M and 2×10EE-13 M. For each compound a blank assay medium control was also included. A 50 μl aliquot of compound or blank was transferred from the dilution plate to the assay plate. Compounds were tested at the following final concentrations: 1×10EE-6 M, 1×10EE-7 M, 1×10EE-8 M; 1×10EE-9 M, 1×10EE-10 M, 1×10EE-11 M and 1×10EE-12 M and 1×10EE-13 M. The assay plate was incubated for 3 h in a 5% CO2 incubator at 37° C. The assay plate was removed from the incubator and allowed to stand at room temperature for 15 min. A 100 μl aliquot of steadylite plus reagent was added to each well of the assay plate (reagent is light sensitive). Each assay plate was covered with aluminum foil to protect it from light and shaken for 30 min at room temperature. Each assay plate was read in a Perkin Elmer TopCount NXT instrument. The data from the TopCount instrument was transferred to GraphPad Prism software. The software performed a non-linear regression (log(agonist) vs response-Variable slope (four parameter)). EC50 values were calculated by the software and reported in pM.
A general note: A reporter such as luciferase makes a cellular process visible.

This is an account of results in patent US9988430B2, “Stable GLP-1 based GLP-1/glucagon receptor co-agonists” (Novo Nordisk A/S, priority 2014, dated 2018).

The structures appear in SMILES notation. *1 amine or outer side, *2 acyl side, *3 side chain or, on linkers, in order; H or OH if unused. Where a SMILES comes first, the peptide text is derived from it. Side-chain parts run from the residue outwards. [ ]: non-standard residue; d: D form. The star is where a group is joined. C18 diacid = O=C(O)CCCCCCCCCCCCCCCCC(=O)*; γGlu = O=C(O)[C@H](CCC(=O)[*:2])N[*:1]; Desaminohistidyl = O=C(CCc1c[nH]cn1)*; Ac4c = NC1(C(=O)O)CCC1; AEEA = NCCOCCOCC(=O)O

T1 sequence (P43220 24-463): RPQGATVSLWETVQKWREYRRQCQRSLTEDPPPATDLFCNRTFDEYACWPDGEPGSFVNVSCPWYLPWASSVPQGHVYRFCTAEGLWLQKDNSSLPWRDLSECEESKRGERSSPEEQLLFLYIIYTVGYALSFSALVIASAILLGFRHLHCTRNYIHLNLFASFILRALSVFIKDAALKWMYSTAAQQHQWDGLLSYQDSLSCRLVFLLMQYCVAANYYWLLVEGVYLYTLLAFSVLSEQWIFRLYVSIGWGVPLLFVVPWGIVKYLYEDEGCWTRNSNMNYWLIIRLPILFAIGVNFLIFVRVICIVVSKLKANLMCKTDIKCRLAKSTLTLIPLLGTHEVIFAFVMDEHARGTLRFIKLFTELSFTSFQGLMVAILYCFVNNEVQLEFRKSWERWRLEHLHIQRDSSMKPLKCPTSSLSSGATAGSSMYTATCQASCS

A word on the IC50: it is the concentration needed to halve the response being measured. As a reminder, the EC50 is the concentration giving half of the maximal effect. As for `CC[C@H](C)[C@H](NC(=O)[C@H](Cc1ccccc1)NC(=O)[C@H](CCC(=O)O)NC(=O)[C@H](CCCNC(=N)N)NC(=O)[C@H](C)NC(=O)[C@H](C)NC(=O)[C@H](CCC(N)=O)NC(=O)[C@H](CCC(=O)O)NC(=O)[C@H](CCC(=O)O)NC(=O)[C@H](CC(C)C)NC(=O)[C@H](Cc1ccc(O)cc1)NC(=O)[C@H](CCCNC(=N)N)NC(=O)[C@H](CO)NC(=O)[C@H](Cc1ccc(O)cc1)NC(=O)[C@H](CC(=O)O)NC(=O)[C@H](CO)NC(=O)[C@@H](NC(=O)[C@H](Cc1ccccc1)NC(=O)[C@@H](NC(=O)CNC(=O)[C@H](Cc1c[nH]cn1)NC(=O)C1(NC(=O)CCc2c[nH]cn2)CCC1)[C@@H](C)O)[C@@H](C)O)C(=O)N[C@@H](C)C(=O)N[C@@H](Cc1c[nH]c2ccccc12)C(=O)N[C@@H](CC(C)C)C(=O)N[C@@H](CC(C)C)C(=O)N[C@@H](CCCNC(=N)N)C(=O)N[C@@H](CCCCNC(=O)CC[C@H](NC(=O)COCCOCCNC(=O)CC[C@H](NC(=O)COCCOCCNC(=O)CC[C@H](NC(=O)COCCOCCNC(=O)CC[C@H](NC(=O)CC[C@H](NC(=O)CCCCCCCCCCCCCCCCC(=O)O)C(=O)O)C(=O)O)C(=O)O)C(=O)O)C(=O)O)C(N)=O` [Example 22, N^ε35-[(4S)-4-carboxy-4-[[2-[2-[2-[[(4S)-4-carboxy-4-[[2-[2-[2-[[(4S)-4-carboxy-4-[[2-[2-[2-[[(4S)-4-carboxy-4-[[(4S)-4-carboxy-4-(17-carboxyheptadecanoylamino)butanoyl]amino]butanoyl]amino]ethoxy]ethoxy]acetyl]amino]butanoyl]amino]ethoxy]ethoxy]acetyl]amino]butanoyl]amino]ethoxy]ethoxy]acetyl]amino]butanoyl]-[Imp7,Acb8,His9,Tyr16,Arg18,Glu22,Arg26,Leu33,Arg34,Lys35]-GLP-1-(7-35)-peptide amide] (Desaminohistidyl-[Ac4c]HGTFTSDYSRYLEEQAAREFIAWLLRK([γGlu-AEEA-γGlu-AEEA-γGlu-AEEA-γGlu-γGlu-C18 diacid])-NH2), the IC50 at human GLP-1 receptor [1] came to 0.9 nM. Also, the EC50 on human GLP-1 receptor [2] was determined as 0.003 nM.
`CC[C@H](C)[C@H](NC(=O)[C@H](Cc1ccccc1)NC(=O)[C@H](CCC(=O)O)NC(=O)[C@H](CCCNC(=N)N)NC(=O)[C@H](C)NC(=O)[C@H](C)NC(=O)[C@H](CCC(N)=O)NC(=O)[C@H](CCCNC(=N)N)NC(=O)[C@H](CCC(=O)O)NC(=O)[C@H](CC(C)C)NC(=O)[C@H](Cc1ccc(O)cc1)NC(=O)[C@H](CCCCN)NC(=O)[C@H](CO)NC(=O)[C@H](Cc1ccc(O)cc1)NC(=O)[C@H](CC(=O)O)NC(=O)[C@H](CO)NC(=O)[C@@H](NC(=O)[C@H](Cc1ccccc1)NC(=O)[C@@H](NC(=O)CNC(=O)[C@H](Cc1c[nH]cn1)NC(=O)C1(NC(=O)CCc2c[nH]cn2)CCC1)[C@@H](C)O)[C@@H](C)O)C(=O)N[C@@H](C)C(=O)N[C@@H](Cc1c[nH]c2ccccc12)C(=O)N[C@@H](CC(C)C)C(=O)N[C@@H](CC(C)C)C(=O)N[C@@H](CCCCN)C(=O)N[C@@H](CCCCNC(=O)CC[C@H](NC(=O)COCCOCCNC(=O)CC[C@H](NC(=O)COCCOCCNC(=O)CC[C@H](NC(=O)COCCOCCNC(=O)CC[C@H](NC(=O)CC[C@H](NC(=O)CCCCCCCCCCCCCCCCC(=O)O)C(=O)O)C(=O)O)C(=O)O)C(=O)O)C(=O)O)C(N)=O` [Example 23, N^ε35-[(4S)-4-carboxy-4-[[2-[2-[2-[[(4S)-4-carboxy-4-[[2-[2-[2-[[(4S)-4-carboxy-4-[[2-[2-[2-[[(4S)-4-carboxy-4-[[(4S)-4-carboxy-4-(17-carboxyheptadecanoylamino)butanoyl]amino]butanoyl]amino]ethoxy]ethoxy]acetyl]amino]butanoyl]amino]ethoxy]ethoxy]acetyl]amino]butanoyl]amino]ethoxy]ethoxy]acetyl]amino]butanoyl]-[Imp7,Acb8,His9,Tyr16,Lys18,Arg22,Arg26,Leu33,Lys35]-GLP-1-(7-35)-peptide amide] (Desaminohistidyl-[Ac4c]HGTFTSDYSKYLERQAAREFIAWLLKK([γGlu-AEEA-γGlu-AEEA-γGlu-AEEA-γGlu-γGlu-C18 diacid])-NH2): the IC50 on human GLP-1 receptor [1] amounted to 2.3 nM. Moreover, the EC50 at human GLP-1 receptor [2] worked out at 0.007 nM.
